Entries after “also recorded” stand apart in the source; their conditions may differ.
How the values were obtained:
Assay type in all cases: cell-based, human
[1] = system: telomeric transgenes (GFP, DsRed) in HeLa cells; test: Telomeric gene silencing quantitative assay (GFP/DsRed reporters, cytofluorometry); conditions: for transgene expression at telomeric positions: HeLa telomeric clones, agent in culture medium (TSA 1 μM 48 h, NaB 1 mM one week, 5azadC 3 μM 48 h, BrdU 50 μM one week)
Protocol: The minimal CMV promoter and EGFP and DsRed coding sequences (Clontech) were PCR amplified and cloned in both orientations in pBS-SK2 containing telomeric repeats, kindly provided by J. Baur (2). Puromycin resistance gene expressed from the CAG promoter was inserted upstream of DsRed, in a telomere-distal position. Four Gal4 binding site were introduced between EGFP and DsRed expression cassettes at AscI and BamHI restriction sites, yielding pGE1min-Gal and pGE2 min-Gal. Control plasmids were generated by deletion of the telomeric repeats. Plasmids encoding the Gal DNA binding domain alone (pCD-Gal-DBD), or fused to the CTF1 Proline rich (pCMV-Gal-Pro) or to the VP16 (pCMV-Gal-VP16) transcriptional activation domains were as described previously (31). Plasmids encoding Gal-CTF1 fusion mutations were previously described by Alevizopoulos et al. (1995). Plasmids used to generate stable populations expressing Gal4 derivatives were obtained by cloning Gal-fusion genes or the BFP gene in an expression vector carrying the MAR 1-68 and the SV40 promoter (15).
HeLa cells (Clontech) were cultivated at 37° C. and 5% CO2 in DMEM-F12 with 10% fetal bovine serum (Gibco). Histone deacetylation or DNA methylation studies were performed by supplementing the cell culture medium with either 1 μM of Trichostatin A (TSA, Wako) for 48 h, 1 mM of Sodium butyrate (Sigma) for one week, 3 μM of 5-aza-2′-deoxycytidine (5azadC, Sigma) for 48 h, or 50 μM of Bromo-deoxyuridine (BrdU, Applichem) for one week. Transfections were performed using the Fugene 6 transfection reagent following instructions from the manufacturer (Roche). Stable clones were obtained by transfection of linearized plasmids pGEmin-Gal, pGE2 min-Gal or their respective controls. Cells were selected with 2 μg/mL of puromycin for three weeks, and all analyses were performed at least two weeks after the end of selection, to allow for the silencing of the telomeric locus. Transient transfections were performed by co-transfection of a Gal-fusion encoding plasmid and a BFP encoding plasmid at a molar ratio of 9:1. Cytofluorometric assays of the fluorescent reporter proteins were performed 48 h later. Stable populations expressing Gal-DBD/Gal-Pro were obtained by co-transfecting the Gal-fusion expression plasmid, a BFP-encoding plasmid, and a Zeocin resistance plasmid at 45:45:10 weight ratio. Zeocin resistant cells displaying high BFP levels were sorted twice, and the amount of zeocin was increased to 1800 μg/mL with increments of 200 μg/mL, to ensure consistent and elevated levels of fusion protein expression. Fluorescence in situ hybridization (FISH) was performed as described previously (12, 15) using two colors labeling of the reporter plasmids and of the telomeric repeats.
In order to analyze both telomere-insulated and non-insulated genes co-integrated at the same telomeric locus, we generated the reporter plasmids shown in FIG. 17A. Reporter vectors consist of the green fluorescent protein (GFP) and red fluorescent protein (DsRed) coding sequences placed on either side of four DNA binding sites for the yeast GAL4 protein. Each reporter gene was placed under the control of a minimal CMV promoter, in an orientation mediating either convergent or divergent directions of transcription. An antibiotic resistance gene was placed adjacent to DsRed, while telomeric (TTAGGG)n repeats were placed next to the GFP expression cassette. […] These constructs were transfected, and antibiotic-resistant cells having stably integrated the transgenes in their genome were selected and sorted into monoclonal populations. […] Fluorescence in situ hybridization (FISH) analysis indicated a telomeric or subtelomeric transgene position for all retained clones (see FIG. 6 in the supplemental material). […]

[2] = system: histones H3, H4, H2A.Z on GFP and DsRed sequences in HeLa clones; test: Chromatin immunoprecipitation of histone modifications on telomeric transgenes; conditions: clone B09
Protocol: Antibodies against acetylated H3 (06-599), acetylated H4 (06-866) and trimethylated H3K9 (07-442) were obtained from Upstate biotechnology. Antibody against H2A.Z (ab4174) was purchased from Abcam. HeLa cells were harvested at a confluence of 90% and cross-linked with 1% formaldehyde for 4 min. After lysis of the nuclei, chromatin was sonicated to obtain fragments of ˜1000 pb and digested with BamHI. The chromatin solution was diluted to a volume of 300 μL in a buffer containing 200 mM HEPES, 2M NaCl, 20 mM EDTA, 0.1% NaDoc, 1% Triton X-100, 1 mg/mL BSA. Chromatin fragments were precleared 30 min with 10 μL rProtein A Sepharose (Amersham Biosciences) and supernatants were incubated at 4° C. overnight with 5 μL of antibody. Immunoprecipitated complexes were incubated with 10 μL rProtein A Sepharose and pellets were washed 3 times with IP buffer (20 mM HEPES, 0.2M NaCl, 2 mM EDTA, 0.1% NaDoc, 1% Triton X-100). Immunoprecipitated complexes were eluted in 100 mM Tris/HCl, 1% SDS and cross-links were reversed at 65° C. for 1 hour. Precipitated DNAs were eluted in 50 μL TE.
Quantitative PCR was performed on 7700 Sequence detector (Applied Biosystems) using SYBR Green reagent (Eurogentec). Chromatin immuno-precipitation samples and chromatin input were diluted 10 fold before analysis. […]

[3] = system: Fr-MuLV LTR enhancer acting on GFP gene in HeLa cells; test: Quantitative double-reporter (BFP/GFP) enhancer-blocking assay, transient transfection; conditions: HeLa transient, 48 hours, GFP/BFP ratio, compared to full-length cHS4
Description: Panel A is a schematic illustration of the retroviral-mediated integration of a transgene expression cassette into a host cell genome upon viral infection. This cassette contains a transgene under the control of a retroviral LTR and is flanked by a genetic insulator element shielding a cellular gene at the site of integration from LTR-mediated up-regulation. In order to mimic events leading to gene transfer-mediated insertional activation in a plasmid-based assay system (B), plasmid constructs were designed containing a BFP gene under the control of a viral LTR enhancer-promoter and a GFP gene under the control of a minimal CMV promoter (P). Inserting a potent insulator in between the two reporter genes should prevent the expression over-activation of the GFP gene without affecting the BFP expression, as it should shield cellular gene from up-regulation at the site of integration of a viral vector without interfering with transgene expression. In addition, in order to insulate the whole construct itself either from the viral enhancer bi-directional activation in transient transfection (circular form of the plasmid) or from a neighboring cellular enhancer at the site of integration in stable transfection (integrated linearized form of the plasmid), a copy of the cHS4 insulator is inserted at the edge of the reporter gene expression cassettes
The plasmid constructs described in FIG. 26B were obtained as follows. The EGFP gene expressed from a minimal CMV promoter was PCR amplified from a pcDNA3-EGFP plasmid excluding the CMV enhancer. The EBFP gene was PCR amplified from the pEBFP-NI plasmid (Clontech). Both reporters were subcloned in a pBS2-SKP (Stratagene). The Fr-MuLV LTR was inserted upstream from the EBFP gene such that transcription from the LTR is directed towards EBFP, and a copy of the 1.2 kb cHS4 was inserted downstream from the EGFP gene. Insulator sequences were inserted between the Fr-MuLV LTR and the minimal CMV promoter driving GFP expression. The 250 bp cHS4 core was PCR amplified from the full-length cHS4 (GenBank accession number: U78775.2, amplification from position 1 to 250). A series of neutral DNA spacers of various lengths were PCR amplified from the mouse utrophin cDNA (GenBank accession number: BC062163.1, amplifications form position 355 to positions 605 and 1555).
HeLa cells were transfected using FuGENE 6 reagent (Roche Diagnostics) according to the manufacturer's recommendations. Equimolar amounts of the different plasmids were transfected in each experiment (using the pBS2-SKP backbone plasmid as carrier). Circular plasmids were used for transient transfections, while plasmids were linearized before stable transfections. To obtain stable populations, the reporter constructs were co-transfected with a puromycin resistance-encoding plasmid (pPUR, Clontech) with a molar ratio of 10:1 and cells were grown in Dulbecco's modified Eagle medium containing 10% fetal bovine serum and 0.5 μg/mL puromycin (all from GIBCO). Fluorescence analyses were acquired on the FACS Cyan (Dakocytomation) with the settings of 450 V on the SSC channel, 340 V for the GFP and 450 V for the BFP. Data analysis of the double-reporter assay consisted in normalizing the GFP fluorescence to the BFP fluorescence for each cell and averaging these values over the total cell population. FACS analyses were performed 48 hours after transfection for transient expression and after 2 to 3 weeks of selection post-transfection for stable expression. Data processing was performed using the FlowJo software.
Therefore, we designed a two-reporter gene assay whereby the potency of enhancer-blocker insulators can be quantified, and in which polar insulating activities can be distinguished from enhancer inhibition or from global gene silencing effects. […]

**Q.** For `Nc1ncn([C@H]2C[C@H](O)[C@@H](CO)O2)c(=O)n1` [5azadC, 5-aza-2′-deoxycytidine], which “transgene expression at telomeric positions” value (“transgene expression” for short) [1] is on record?
**A.** little effect on transgene expression

**Q.** How did the “transgene expression” value [1] turn out when `O=c1[nH]c(=O)n([C@H]2C[C@H](O)[C@@H](CO)O2)cc1Br` [BrdU, Bromo-deoxyuridine] was run?
**A.** increase in expression of the reporter genes, but to a lesser extent than that noted with TSA

**Q.** With `CCCC(=O)[O-].[Na+]` [NaB, Sodium butyrate] as the molecule, how does the “transgene expression” value [1] read?
**A.** lower unsilencing effects in some clones

**Q.** And the telomeric gene expression ([1]; clone D17)?
**A.** little effect on telomeric gene expression

**Q.** Which results are given for `CC(/C=C/C(=O)NO)=C\[C@@H](C)C(=O)c1ccc(N(C)C)cc1` [TSA, Trichostatin A]?
**A.** transgene expression at telomeric positions [1]: strongly increase transgene expression; H3K9Me3 on DsRed and GFP sequences (ChIP) [2]: increase; H3 and H4 acetylation on DsRed and GFP sequences (ChIP) [2]: increase of the acetylation of both DsRed and GFP

**Q.** “CTF1: native transcription factor of the CTF/NF1 family, transiently expressed” was tested. Which “reporter gene activation upon transient CTF1 expression” value ([1]; reporter with seven CTF/NF1 binding sites, internal chromosomal location) did it give?
**A.** commensurate activation occurred for both reporter genes

**Q.** What about the “boundary effect upon transient CTF1 expression” value ([1]; reporter with seven CTF/NF1 binding sites, telomeric transgenes) of the same molecule?
**A.** boundary effect was observed

**Q.** Which “enhancer-blocking (insulator) activity” value [3] does the source give for “One binding site (20 bp element): single CTF/NF1 binding site from adenovirus type II origin of replication, 20 bp (DNA TTGGCAACGTGCCATAAGCA; listed as DNA, chemistry not given here)” here?
**A.** responsible for most of the effect

**Q.** And the “enhancer-blocking (insulator) activity” value ([3]; listed as single binding site of 20 bp)?
**A.** approximately half of the insulating effect seen with the full-length cHS4

B1: 12×CTCF: 12 copies of consensus CTCF binding sites with random spacers, 472 bp (nucleic acid)
DNA: GCGATGCCGCCCCCTGGTGGCCAGTAATCGCAAGGCTAAGTAATCACTGCCCCCTGGTGGCCGCCAGTCTGATACGCGTTTTACAACCGCCCCCTGGTGGCCGTGGGAGACATCTAGTGCACGAGAGTGCCCCCTGGTGGCCAAACCGTAGCCTAGGCATATTGTACTGCCCCCTGGTGGCCGGCAATATGGCTAGCGATGACTCGGCGCCCCCTGGTGGCCACTACGTTCTAGTGGCGATGCCGCCCCCTGGTGGCCAGTAATCGCAAGGCTAAGTAATCACTGCCCCCTGGTGGCCGCCAGTCTGATACGCGTTTTACAACCGCCCCCTGGTGGCCGTGGGAGACATCTAGTGCACGAGAGTGCCCCCTGGTGGCCAAACCGTAGCCTAGGCATATTGTACTGCCCCCTGGTGGCCGGCAATATGGCTAGCGATGACTCGGCGCCCCCTGGTGGCCACTACGTTCTAGTG
modifications: Consensus binding sites for CTCF (12copies)
**Q.** With B1 as the molecule, how does the “enhancer-blocking (insulator) activity” value [3] read?
**A.** as potent as the complete 1.2 kb cHS4 element; also recorded: comparable to the one of the full length cHS4; also recorded: fully reproduced the insulation effect; also recorded: able to reconstitute the enhancer blocking activity mediated by the full-length 1.2 kb cHS4

B2: CTCF cons: 6 repeats of the consensus CTCF binding site separated by random linkers (nucleic acid)
DNA: GCGATGCCGCCCCCTGGTGGCCAGTAATCGCAAGGCTAAGTAATCACTGCCCCCTGGTGGCCGCCAGTCTGATACGCGTTTTACAACCGCCCCCTGGTGGCCGTGGGAGACATCTAGTGCACGAGAGTGCCCCCTGGTGGCCAAACCGTAGCCTAGGCATATTGTACTGCCCCCTGGTGGCCGGCAATATGGCTAGCGATGACTCGGCGCCCCCTGGTGGCCACTACGTTCTAGTG
modifications: CTCF consensus binding sites
**Q.** How did the “enhancer-blocking (insulator) activity” value [3] turn out when B2 was run?
**A.** already showed significant activity

**Q.** And the “enhancer-blocking (insulator) activity” value ([3]; listed as Consensus binding sites for CTCF)?
**A.** able to show the same activity, with no significant improvement

Source: US20110294873A1, “Gene Transfer Vectors Comprising At Least One Isolated DNA Molecule Having Insulator Or Boundary Properties And Methods To Identify The Same” (UNIVERSITÉ DE LAUSANNE, priority 2008, published 2011)
